Data published in ChEMBL document CHEMBL1130857, “Synthesis and biological activity of lactones en route to Altohyrtin A” (1998).
Converted amounts (≈) assume the structure as drawn. The source made the active and inactive calls. The calls are words filed in the database; no cut-off is given here.

Assays:
[1] = Antitumor activity was evaluated by the lethal concentration of Pancreas-a BXPC-3 cells; Active; type: functional; details: Homo sapiens, read-out: LC50 (the source's name)
[2] = Antitumor activity was evaluated by the total growth inhibition of Thyroid ca KAT-4 cells; Active; type: functional; details: Homo sapiens, KAT-4, read-out: TGI50
[3] = Antitumor activity was evaluated by the lethal concentration of Prostate DU-145 cells; Active; type: functional; details: Homo sapiens, read-out: LC50 (the source's name)
[4] = species: Homo sapiens; assay: Antitumor activity was evaluated by the total growth inhibition of Pharynx-sq FADU cells; Active; type: functional; details: read-out: TGI50
[5] = Antitumor activity was evaluated by the total growth inhibition of Lung-NSC NCI-H460 cells; Active; type: functional; details: Homo sapiens, NCI-H460, read-out: TGI50
[6] = Antitumor activity was evaluated by the lethal concentration of Thyroid ca SW 1736 cells; Active; type: functional; details: Homo sapiens, read-out: LC50 (the source's name)
[7] = Antitumor activity was evaluated by the total growth inhibition of Thyroid ca SW 1736 cells; Active; type: functional; details: Homo sapiens, SW-1736, read-out: TGI50
[8] = Antitumor activity was evaluated by the lethal concentration of Thyroid ca KAT-4 cells; Active; type: functional; details: Homo sapiens, read-out: LC50 (the source's name)
[9] = species: Homo sapiens; assay: Antitumor activity was evaluated by the lethal concentration of Pharynx-sq FADU cells; Active; type: functional; details: read-out: LC50 (the source's name)
[10] = Antitumor activity was evaluated by the growth inhibition of Thyroid ca SW 1736 cells; Active; type: functional; details: Homo sapiens
[11] = Antitumor activity was evaluated by the growth inhibition of Pancreas-a BXPC-3 cells; Active; type: functional; details: Homo sapiens
[12] = Antitumor activity was evaluated by the growth inhibition of Prostate DU-145 cells; Active; type: functional; details: Homo sapiens
[13] = Antitumor activity was evaluated by the growth inhibition of Thyroid ca KAT-4 cells; Active; type: functional; details: Homo sapiens
[14] = Antitumor activity was evaluated by the growth inhibition of Lung-NSC NCI-H460 cells; Active; type: functional; details: Homo sapiens
[15] = species: Homo sapiens; assay: Antitumor activity was evaluated by the growth inhibition of Pharynx-sq FADU cells; Active; type: functional
[16] = Antitumor activity was evaluated by the total growth inhibition of Pancreas-a BXPC-3 cells; Active; type: functional; details: Homo sapiens, BXPC-3, read-out: TGI50
[17] = Antitumor activity was evaluated by the lethal concentration of Lung-NSC NCI-H460 cells; Active; type: functional; details: Homo sapiens, read-out: LC50 (the source's name)
[18] = Antitumor activity was evaluated by the total growth inhibition of Prostate DU-145 cells; Active; type: functional; details: Homo sapiens, DU-145, read-out: TGI50
[19] = test system: DU-145; assay: Antitumor activity against Prostate DU-145 cells was evaluated; No biological activity; type: functional, cell-based; details: Homo sapiens
[20] = test system: BXPC-3; assay: Antitumor activity against Pancreas-a BXPC-3 cells was evaluated; No biological activity; type: functional, cell-based; details: Homo sapiens
[21] = species: Homo sapiens; assay: Antitumor activity against Pharynx-sq FADU cells was evaluated; No biological activity; type: functional
[22] = test system: KAT-4; assay: Antitumor activity against Thyroid ca KAT-4 cells was evaluated; No biological activity; type: functional, cell-based; details: Homo sapiens
[23] = test system: SW 1736; assay: Antitumor activity against Thyroid ca SW 1736 cells was evaluated; No biological activity; type: functional, cell-based; details: Homo sapiens
[24] = test system: NCI-H460; assay: Antitumor activity against Lung-NSC NCI-H460 cells was evaluated; No biological activity; type: functional, cell-based; details: Homo sapiens

## C[C@@H]1[C@@H](O)[C@H](O)C(=O)O[C@H]1[C@H]1COC(C)(C)O1
[1]
  CC50: > 10000 µg/mL
[2]
  GI50: > 10 µg/mL
[3]
  CC50: > 10000 µg/mL
[4]
  GI50: > 10 µg/mL
[5]
  GI50: > 10 µg/mL
[6]
  CC50: > 10000 µg/mL
[7]
  GI50: > 10 µg/mL
[8]
  CC50: > 10000 µg/mL
[9]
  CC50: > 10000 µg/mL
[10]
  GI50: 8.5 µg/mL (≈ 34.5 µM)
[11]
  GI50: > 10 µg/mL
[12]
  GI50: 2.7 µg/mL (≈ 11 µM)
[13]
  GI50: > 10 µg/mL
[14]
  GI50: 2.9 µg/mL (≈ 11.8 µM)
[15]
  GI50: 3.7 µg/mL (≈ 15 µM)
[16]
  GI50: > 10 µg/mL
[17]
  CC50: > 10000 µg/mL
[18]
  GI50: > 10 µg/mL

## C[C@H]1C(COCc2ccccc2)OC(=O)[C@@H](O)[C@@H]1O (some centres undefined)
[19]
  Activity: inactive
[20]
  Activity: inactive
[21]
  Activity: inactive
[22]
  Activity: inactive
[23]
  Activity: inactive
[24]
  Activity: inactive
